Results reported in publication PMC10037499, “High-Throughput Screen Reveals the Structure–Activity Relationship of the Antimicrobial Lasso Peptide Ubonodin” (ACS Central Science, 2023).
Where a SMILES comes first, the peptide text is derived from it.

Tests used:
[1] = test system: RNA polymerase (RNAP) in E. coli MC1061; assay: High-throughput growth-based screen with NGS (enrichment value) for RNA polymerase inhibition; format: cell-based; set-up: key to Experimental observation (enrichment observed in the screen): Dropout: Many variants inhibit RNAP so strongly that they cannot be detected by NGS after IPTG induction (referred to as dropout variants); conditions: Table S4; variants whose MICs were tested
Outline: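 E. coli MC1061 carrying ubonodin single/double variant plasmid libraries was grown and induced with 10 µM or 100 µM IPTG; surviving colonies were sequenced by NGS. Enrichment value = log2 of variant frequency post-IPTG over frequency in the cloning transformation library; depletion indicates RNAP inhibition.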

E. coli MC1061 = assay: Spot dilution assay of E. coli producing the ubonodin variant from pUboABC; format: cell-based; conditions: variant in pUboABC backbone in E. coli MC1061, induction with 100 μM IPTG, ten-fold serial dilutions, biological duplicates
Outline: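 E. coli MC1061 carrying the plasmids was grown at 37 °C in LB with 100 μg/mL ampicillin to OD600 0.3, then induced with 100 μM IPTG. Samples taken before induction and at later timepoints were PBS-washed, spotted as ten-fold dilutions on ampicillin/0.2% glucose LB plates, and imaged after 16 h at 37 °C.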

B. cenocepacia AU0756 = test system: B. cenocepacia AU0756
Outline: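 Ubonodin variants were tested by broth microdilution following CLSI guidelines against clinical Burkholderia cenocepacia isolates AU0756 and AU24362.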

SMILES	Experimental observation (enrichment observed in the screen) [1]	Inhibits Growth (E. coli MC1061)	B. cenocepacia AU0756 MIC (B. cenocepacia AU0756) [µM]
CC[C@H](C)[C@H](NC(=O)[C@H](Cc1c[nH]cn1)NC(=O)[C@H](CCSC)NC(=O)[C@@H]1CCCN1C(=O)[C@@H](NC(=O)[C@H](CC(N)=O)NC(=O)[C@H](Cc1ccccc1)NC(=O)[C@H](Cc1ccc(O)cc1)NC(=O)[C@@H]1CCC(=O)NCC(=O)NCC(=O)N[C@@H](CC(=O)O)C(=O)NCC(=O)N[C@@H](CO)C(=O)N[C@@H]([C@@H](C)CC)C(=O)N[C@@H](C)C(=O)N1)C(C)C)C(=O)NCC(=O)N[C@@H](CC(=O)O)C(=O)N[C@@H](Cc1c[nH]c2ccccc12)C(=O)N[C@@H](CCC(N)=O)C(=O)N[C@H](C(=O)N[C@@H](CCSC)C(=O)N[C@@H](CC(=O)O)C(=O)N[C@@H](CO)C(=O)NCC(=O)N[C@@H](Cc1ccc(O)cc1)C(=O)N[C@@H](Cc1ccc(O)cc1)C(=O)NCC(=O)O)[C@@H](C)CC [R12V H17G] (HELM PEPTIDE1{G.G.D.G.S.I.A.E.Y.F.N.V.P.M.H.I.G.D.W.Q.I.M.D.S.G.Y.Y.G}$PEPTIDE1,PEPTIDE1,1:R1-8:R3$$$V2.0)	Dropout	Yes	0.25 to 0.5
CC[C@H](C)[C@@H]1NC(=O)[C@H](Cc2c[nH]cn2)NC(=O)CNC(=O)[C@H](CC(=O)O)NC(=O)CNC(=O)CNC(=O)CC[C@@H](C(=O)N[C@@H](Cc2ccc(O)cc2)C(=O)N[C@@H](Cc2ccccc2)C(=O)N[C@@H](CC(N)=O)C(=O)N[C@@H](CCCNC(=N)N)C(=O)N2CCC[C@H]2C(=O)N[C@@H](CCSC)C(=O)N[C@@H](Cc2c[nH]cn2)C(=O)N2CCC[C@H]2C(=O)N[C@@H](Cc2c[nH]cn2)C(=O)N[C@@H](CC(=O)O)C(=O)N[C@@H](Cc2c[nH]c3ccccc23)C(=O)N[C@@H](CCC(N)=O)C(=O)N[C@H](C(=O)N[C@@H](CCSC)C(=O)N[C@@H](CC(=O)O)C(=O)N[C@@H](CO)C(=O)NCC(=O)N[C@@H](Cc2ccc(O)cc2)C(=O)N[C@@H](Cc2ccc(O)cc2)C(=O)NCC(=O)O)[C@@H](C)CC)NC(=O)[C@H](C)NC1=O [S5H I16P] (HELM PEPTIDE1{G.G.D.G.H.I.A.E.Y.F.N.R.P.M.H.P.H.D.W.Q.I.M.D.S.G.Y.Y.G}$PEPTIDE1,PEPTIDE1,1:R1-8:R3$$$V2.0)	Dropout	Yes	8
